{
  "source": "patent US9186344B2",
  "about": "“Glycogen or polysaccharide storage disease treatment method” (Baylor Research Institute, priority 2004, dated 2015)",
  "system": "GSDII patient",
  "assay": "Clinical course on triheptanoin diet, Example 2 patient",
  "format": "in vivo, human",
  "description": "Clinical Course. Following informed consent, the patient agreed to enter an approved IRB Protocol for dietary therapy with triheptanoin oil. […] Maximal inspiratory and expiratory pressures were 60 cm of water. […] And pO2=62.\nThe oral diet consisted of 2900 Kcal on admission. […] Total caloric intake was maintained at ˜2800 per day during his 30 day admission.\nInitially, the patient required assistance and supervision with grooming, upper and lower extremity dressing, bathing, and toileting. The patient also required maximal assistance with ambulation and transfers from bed to wheelchair. […] They continued to require supervision, but without assistance, with transfers from bed to wheelchair and to toilet and shower. They had clearly made improvements in strength and endurance with exercise.",
  "data": [
    {"smiles": "CCCCCCC(=O)OCC(COC(=O)CCCCCC)OC(=O)CCCCCC", "note": "[C7, triheptanoin]", "values": [
      {"measurement": "increase in total vital capacity", "setting": "at discharge compared to admission, diet plus physical therapy", "value": 700, "unit": "mL"},
      {"measurement": "functional status at discharge", "setting": "intensive physical therapy and diet, 30 day admission", "value": "independent with grooming, upper and lower extremity dressing, toileting, and locomotion with a manual wheelchair"}
    ]}
  ]
}
